These results are taken from patent US8207160B2, “Tetrahydrobenzazepines and their use in he modulation of the dopamine D3 receptor” (Abbott GmbH & Co. KG, priority 2003, dated 2012).

pKi: −log10 of the molar value. Where two headings read alike, the source gives them in different places.

Experiment [1] deals with T1, human dopamine D3 receptors (Homo sapiens, UniProt P35462).
T1 construct: expressed in transfected cells; membranes used
In words: Dopamine D3 receptor binding, displacement of [125I]-iodosulpride. The method, then: (§1) C) Biological Investigations—Receptor-Binding Studies: • The substance to be tested was dissolved either in methanol/Chremophor®) (BASF-AG) or in dimethyl sulfoxide and then diluted with water to the desired concentration.
I. Dopamine D3 Receptor: • The mixture (0.250 ml) was composed of membranes from ˜10^6 HEK-293 cells with stably expressed human dopamine D3 receptors, 0.1 nM [^125I]-iodosulpride and incubation buffer (total binding) or additionally test substance (inhibition plot) or 1 μM spiperone (nonspecific binding). Triplicate assays were carried out. • The incubation buffer contained 50 mM Tris, 120 mM NaCl, 5 mM KCl, 2 mM CaCl2, 2 mM MgCl2 and 0.1% bovine serum albumin, 10 μM quinolone, 0.1% ascorbic acid (prepared freshly each day). The buffer was adjusted to pH 7.4 with HCl.
(§2) III. Measurement and Evaluation: • After incubation at 25° C. for 60 minutes, the mixtures were filtered through Wathman GF/B glass fiber filters under vacuum using a cell harvester. The filters were transferred using a filter transfer system into scintillation vials. After addition of 4 ml of Ultima Gold® (Packard), the samples were shaken for one hour and then the radioactivity was counted in a Beta Counter (Packard, Tricarb 2000 or 2200CA). The cp values were converted into dpm on the basis of a standard quench series with the aid of the program supplied with the instrument. • The inhibition plots were evaluated by iterative nonlinear regression analysis using the Statistical Analysis System (SAS), similar to the “LIGAND” program described by Munson and Rodbard. • The compounds of the invention show very good affinities for the D3 receptor in these assays (<100 nM, frequently <50 nM) and bind selectively to the D3 receptor.
In general terms: Displacement assays read how much labelled ligand stays bound in the presence of the test substance.

Experiment [2] addresses T2, human dopamine D2L receptors (long isoform) (Homo sapiens, UniProt P14416).
T2 construct: expressed in transfected cells; membranes used
In words: Dopamine D2L receptor binding, displacement of [125I]-iodospiperone. Particulars: Ki(D2L)/Ki(D3); human D2L and D3 receptors in HEK-293 membranes. Here is the method: as §1
II. Dopamine D2L receptor: • The mixture (1 ml) was composed of membranes from ˜10^6 HEK-293 cells with stably expressed human dopamine D2L receptors (long isoform) and 0.01 nM [^125I]-iodospiperone and incubation buffer (total binding) or additionally test substance (inhibition plot) or 1 μM haloperidol (nonspecific binding). Triplicate assays were carried out. • The incubation buffer contained 50 mM Tris, 120 mM NaCl, 5 mM KCl, 2 mM CaCl2, 2 mM MgCl2 and 0.1% bovine serum albumin. The buffer was adjusted to 7.4 with HCl.
as §2

The mark [3] stands for this setting: membranes from HEK-293 cells with stably expressed human dopamine D3 receptors, 0.1 nM [125I]-iodosulpride, 25° C., 60 minutes, read-out: Ki (D3).

T2 sequence (P14416 whole entry, canonical isoform): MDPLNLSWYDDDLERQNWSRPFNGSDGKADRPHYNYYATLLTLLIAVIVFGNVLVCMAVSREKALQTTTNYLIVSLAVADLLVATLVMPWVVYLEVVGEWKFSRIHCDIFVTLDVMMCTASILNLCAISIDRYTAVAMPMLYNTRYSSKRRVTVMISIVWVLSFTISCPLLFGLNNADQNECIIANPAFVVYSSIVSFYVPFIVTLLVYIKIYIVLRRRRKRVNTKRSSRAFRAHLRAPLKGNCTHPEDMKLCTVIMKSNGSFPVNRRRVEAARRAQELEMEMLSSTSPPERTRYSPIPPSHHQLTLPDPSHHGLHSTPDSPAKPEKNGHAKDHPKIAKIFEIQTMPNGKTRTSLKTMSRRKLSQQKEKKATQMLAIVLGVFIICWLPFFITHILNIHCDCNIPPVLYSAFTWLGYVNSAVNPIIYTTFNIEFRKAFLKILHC
T1 sequence (P35462 whole entry): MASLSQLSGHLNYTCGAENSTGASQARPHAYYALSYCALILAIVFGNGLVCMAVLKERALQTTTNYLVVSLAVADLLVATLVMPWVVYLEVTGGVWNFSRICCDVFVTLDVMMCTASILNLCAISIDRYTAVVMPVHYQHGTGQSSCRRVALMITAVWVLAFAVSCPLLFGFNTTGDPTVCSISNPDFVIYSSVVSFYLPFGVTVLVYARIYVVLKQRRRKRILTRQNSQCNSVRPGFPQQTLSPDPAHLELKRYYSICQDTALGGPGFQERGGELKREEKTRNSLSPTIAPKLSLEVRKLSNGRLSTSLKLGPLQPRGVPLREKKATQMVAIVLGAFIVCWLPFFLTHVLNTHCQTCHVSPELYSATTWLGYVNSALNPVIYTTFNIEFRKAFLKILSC

Usually pKi stands for the negative decadic logarithm of the Ki, by convention in mol/L. Regarding `C=CCN1CCc2ccc(NS(=O)(=O)c3ccc(C(C)C)cc3)cc2CC1.Cl` [Example 65, N-(3-Allyl-2,3,4,5-Tetrahydro-1H-3-Benzazepin-7-yl)-4-(Isopropyl)Benzenesulfonamide Hydrochloride], the pKi in experiment [1] (setting [3]) was 9.40. For the same compound, the “Selectivity vs. D2L*” value in experiment [2] is 141.
As for `CCCN1CCc2ccc(S(=O)(=O)Nc3ccc(OC(F)(F)F)cc3)cc2CC1.Cl` [Example 35, 3-Propyl-N-[4-(Trifluoromethoxy)Phenyl]-2,3,4,5-Tetrahydro-1H-3-Benzazepine-7-Sulfonamide Hydrochloride], the pKi in experiment [1] (setting [3]) is 7.55. For the same compound, the “Selectivity vs. D2L*” value in experiment [2] amounted to 40.
The corresponding values for `CCCN1CCc2ccc(CS(=O)(=O)c3ccc(C(C)C)cc3)cc2CC1` [Example 36, 7-(4-Isopropylbenzenesulfonylmethyl)-3-Propyl-2,3,4,5-Tetrahydro-1H-3-Benzazepine] are 9.00 and 446.
The like results for `CCCN1CCc2ccc(NS(=O)(=O)c3ccc(C(C)(C)CC)cc3)cc2CC1.O=C(O)C(F)(F)F` [Example 14, 4-(1,1-Dimethylpropyl)-N-(3-Propyl-2,3,4,5-Tetrahydro-1H-3-Benzazepin-7-yl)Benzenesulfonamide Trifluoroacetate] were, in that order, 8.44 and 113.
For the compound `CCCN1CCc2ccc(NS(=O)(=O)c3ccc(Cl)cc3Cl)cc2CC1.O=C(O)C(F)(F)F` [Example 18, 2,4-Dichloro-N-(3-Propyl-2,3,4,5-Tetrahydro-1H-3-Benzazepin-7-yl)Benzenesulfonamide Trifluoroacetate], the pKi in experiment [1] (setting [3]) is 8.14. Moreover, in experiment [2], the “Selectivity vs. D2L*” value was found to be 85.
For the compound `CC(C)c1ccc(S(=O)(=O)Nc2ccc3c(c2)CCN(CCCF)CC3)cc1.Cl` [Example 66, N-[3-(3-Fluoropropyl)-2,3,4,5-Tetrahydro-1H-3-Benzazepin-7-yl]-4-Isopropylbenzenesulfonamide Hydrochloride], the pKi in experiment [1] (setting [3]) was 8.92. For the same compound, the “Selectivity vs. D2L*” value in experiment [2] came to 146.
As to `CCCN1CCc2ccc(NS(=O)(=O)c3ccc4ccccc4c3)cc2CC1.O=C(O)C(F)(F)F` [Example 17, N-(3-Propyl-2,3,4,5-Tetrahydro-1H-3-Benzazepin-7-yl)Naphthalene-2-Sulfonamide Trifluoroacetate], in experiment [1] (setting [3]), the pKi was 8.35. Further, the “Selectivity vs. D2L*” value in experiment [2] is recorded as 68.
For the compound `CCCCc1ccc(S(=O)(=O)Nc2ccc3c(c2)CCN(CCC)CC3)cc1.O=C(O)C(F)(F)F` [Example 13, 4-Butyl-N-(3-Propyl-2,3,4,5-Tetrahydro-1H-3-Benzazepin-7-yl)Benzene-Sulfonamide Trifluoroacetate], the pKi in experiment [1] (setting [3]) was 9.22. Besides, the “Selectivity vs. D2L*” value in experiment [2] was determined as 143.
Turning to `CCCN1CCc2ccc(NS(=O)(=O)c3ccc(Br)cc3C)cc2CC1.O=C(O)C(F)(F)F` [Example 20, 4-Bromo-2-Methyl-N-(3-Propyl-2,3,4,5-Tetrahydro-1H-3-Benzazepin-7-yl)-Benzenesulfonamide Trifluoroacetate], the pKi in experiment [1] (setting [3]) was 8.15. Further, the “Selectivity vs. D2L*” value in experiment [2] was determined as 85.
Compound `CCCN1CCc2ccc(NS(=O)(=O)c3ccc(Cl)s3)cc2CC1.O=C(O)C(F)(F)F` [Example 21, N-(3-Propyl-2,3,4,5-Tetrahydro-1H-3-Benzazepin-7-yl)-5-Chlorothiophene-2-Sulfonamide Trifluoroacetate] gave a pKi in experiment [1] of 7.80. For the same compound, the “Selectivity vs. D2L*” value in experiment [2] worked out at 47.
For `CCCN1CCc2ccc(NS(=O)(=O)c3ccc(C(C)=O)cc3)cc2CC1` [Example 10, 4-Acetyl-N-(3-Propyl-2,3,4,5-Tetrahydro-1H-3-Benzazepin-7-yl)Benzenesulfonamide], the pKi in experiment [1] (setting [3]) was 7.78. Further, the “Selectivity vs. D2L*” value in experiment [2] is reported as 271.
Consider `CCCN1CCc2ccc(NS(=O)(=O)c3ccc(C(C)C)cc3)cc2CC1.Cl` [Example 8, 4-Isopropyl-N-(3-Propyl-2,3,4,5-Tetrahydro-1H-3-Benzazepin-7-yl)Benzenesulfonamide Hydrochloride], for which the pKi in experiment [1] (setting [3]) is 9.52. For the same compound, the “Selectivity vs. D2L*” value in experiment [2] is reported as 330.
